Holding throughout (type): in vivo, mouse
Test [1] concerns mice. Put plainly: Biweekly subcutaneous administration, peptide specific antibody in sera. The following applies: for antibodies specific for peptide (IgG or IgE) in sera: 100 μg s.c. in PBS on days 0, 14, 28 and 56, alone or in combination; for IgG antibodies to peptide, sera dilution: animals injected with the peptides in CFA. Here is the method:
This animal model experiment was designed to simulate a human treatment protocol such as that described in Example 30. Mice were administered subcutaneous injections of 100 μg peptide/100 μl PBS on days 0, 14, 28 and 56. Mice were administered peptide X or peptide Y either alone or in combination. […] There was no specific binding above background levels for IgG or IgE.

A further test relates to B6CBAF1 mice. In words: Murine T cell response after immunization with peptide YZX, IL-2 production (CTLL-2). The following applies: mice immunized with 100 μg peptide YZX in CFA; label = antigen in culture. The protocol: 10 B6CBAF1 mice were immunized subcutaneously at the base of the tail and in the thigh region with 100 μg of peptide YZX in complete Freund's adjuvant. After 10 days, the inguinal, paraaortic, and popliteal nodes of the immunized mice were removed and pooled. The lymph node cells were suspended in cold RPMI 1640 with 1% fetal bovine serum (FBS) by passage through stainless steel mesh. The cells were washed 2 times with cold RPMI-1640 containing 1% FBS and maintained at 4° C.
The lymph node cells were plated at 4×10^6 cells/ml in RPMI 1640 with 10% FBS, 250 μg/ml penicillin G, 100 μg/ml streptomycin, and 5×10^−5 M 2-mercaptoethanol. […] After 24 hours, 50 μl of supernatant was removed from each culture and frozen overnight to eliminate live cell carryover. The supernatant was warmed to […] and washed. CTLL-2 indicator cells (ATCC # T1B 214) were added (5×10^3 cells/well). This indicator cell line requires IL-2 for continued growth. After 24 hours, H^3-thymidine (1 μCi/well) was added and the cells were further incubated for 4 hours. The plates were frozen and thawed, harvested on a Tomtec 96 well harvester (Tomtec, Orange, Conn.), and counted on a Betaplate beta counter (Pharmacia, Gaithersburg, Md.).

Test [2] relates to mice. Put plainly: Specificity of peptide-induced unresponsiveness (peptide Y vs MI-05). The following applies: subcutaneous injection in saline.
The test system of another test is Balb/c mice. Put plainly: Oral rChain 1, antibody response ELISA, protocol 2. Here is the method: Four groups of five age-matched Balb/c 6- to 10-week-old female mice (The Jackson Laboratory, Bar Harbor, Me.) were fed on days −7, −5 and −2 with 250 μg cleaved, purified, recombinant TRFP Chain 1 (rChain) (Groups 1 and 3) or with PBS (Groups 2 and 4). On day 0, the mice in Groups 1 and 2 were challenged with an intraperitoneal (i.p.) injection of 10 μg rChain 1 in alum, while the mice in Groups 3 and 4 were challenged on day 0 with an i.p. injection of 100 μg rChain 1 in CFA. […]
Subsequent incubations were for 1 hour at 37° C. The wells were washed with PBS containing 0.05% Tween 20 and blocked with 0.5% gelatin in PBS. Sera were diluted in PBS as noted in the individual assay and were incubated in triplicate on the washed plates. After incubation and washing, the bound mouse antibody was detected by incubation with biotinylated goat anti-mouse IgG (Southern Biotechnology Ass.). […] 3,3′,5,5′-Tetramethylbenzidine peroxidase substrate (Kirkegaard & Perry Labs) was used according to directions supplied, and resulting OD (450 nm) values were determined using an ELISA reader (Bio-Tek model 310, Winooski, Vt.). […]
Antigen-bound IgE was detected similarly except using a biotinylated rat monoclonal antibody specific for mouse IgE (Baniyash et al. (1984) Eur. J. Immunol. 14:799-807). […]
On the technique in general: An ELISA detects its analyte on a solid surface through an enzyme-linked reagent.

Take “peptide X: amino acid residues 7-30 from chain 1 of TRFP (SEQ. ID. NO: 17); Table 2 lists Fel 8-3 as 7-33 (KRDVDLFLTGTPDEYVEQVAQYKALPV)”: in the test on mice [1], the “antibodies specific for peptide (IgG or IgE) in sera” value was “no antibodies specific for either peptide” and the “IgG antibodies to peptide, sera dilution” value was 1/4500. Also, in the test on B6CBAF1 mice, the “T cell response of pooled lymph node cells (IL-2 production)” value is “significant response”.
On to “peptide Y: amino acid residues 29-55 from chain 1 of TRFP (SEQ. ID. NO: 18) (KALPVVLENARILKNCVDAKMTEEDKE)”, for which, in the test with mice [2], the “responses to MI-05” value was “did not affect responses to MI-05” and the “responsiveness to peptide Y” value was “decreased responsiveness to peptide Y”. Also, in the test on mice [1], the “antibodies specific for peptide (IgG or IgE) in sera” value is on record as “no antibodies specific for either peptide” and the “IgG antibodies to peptide, sera dilution” value was 1/4500. Besides, the “T cell response of pooled lymph node cells (IL-2 production)” value in the test on B6CBAF1 mice is “significant response”.
In the case of “recombinant chain 1: recombinant TRFP chain 1 expressed in E. coli”, the “IgE binding to rChain 1” value in the test with Balb/c mice (92 days after challenge, compared to PBS) is given as “less IgE binding to rChain 1”. In addition, the “IgG response to rChain 1” value with Balb/c mice (oral administration, up to 100 days after treatment) is given as “depressed level of IgG response”.

Values taken from patent US7482008B1, “Human T cell reactive feline protein (TRFP) isolated from house dust and uses therefor” (Merck Patent GmbH, priority 1989, dated 2009).
